Here are results for 13 compounds from patent US12378186B2, “Inhibitors of meprin α and β” (VIVORYON THERAPEUTICS N.V., priority 2016, dated 2025).

Structures are written as SMILES. Like-named read-outs stand apart in the source and are kept apart here.

In one assay the target is T1, hMeprin β (Homo sapiens, UniProt Q16820).
T1 sequence (Q16820 62-701): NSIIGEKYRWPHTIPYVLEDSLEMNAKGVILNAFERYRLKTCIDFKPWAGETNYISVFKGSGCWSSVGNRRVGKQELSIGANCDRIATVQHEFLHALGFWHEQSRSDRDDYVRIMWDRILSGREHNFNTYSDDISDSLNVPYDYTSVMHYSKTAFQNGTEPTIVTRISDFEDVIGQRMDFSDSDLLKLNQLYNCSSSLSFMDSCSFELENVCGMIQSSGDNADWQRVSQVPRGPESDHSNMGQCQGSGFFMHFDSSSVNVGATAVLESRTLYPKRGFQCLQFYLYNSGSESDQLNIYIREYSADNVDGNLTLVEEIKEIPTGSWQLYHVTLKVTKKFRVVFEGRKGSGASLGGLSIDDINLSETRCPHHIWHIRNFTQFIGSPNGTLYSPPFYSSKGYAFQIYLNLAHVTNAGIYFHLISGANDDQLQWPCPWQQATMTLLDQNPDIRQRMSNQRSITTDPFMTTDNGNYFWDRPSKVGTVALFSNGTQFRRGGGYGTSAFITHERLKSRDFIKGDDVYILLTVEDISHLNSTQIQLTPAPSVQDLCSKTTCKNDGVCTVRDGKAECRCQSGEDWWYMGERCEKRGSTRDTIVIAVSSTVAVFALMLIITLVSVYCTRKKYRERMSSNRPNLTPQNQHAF
As to the kind of experiment: Enzymatic assay, cleavage of internally quenched peptide substrate, hMeprin β. It is filed as biochemical.

The target in the next assay is T2, hMeprin α (Homo sapiens, UniProt Q16819).
T2 sequence (Q16819 66-746): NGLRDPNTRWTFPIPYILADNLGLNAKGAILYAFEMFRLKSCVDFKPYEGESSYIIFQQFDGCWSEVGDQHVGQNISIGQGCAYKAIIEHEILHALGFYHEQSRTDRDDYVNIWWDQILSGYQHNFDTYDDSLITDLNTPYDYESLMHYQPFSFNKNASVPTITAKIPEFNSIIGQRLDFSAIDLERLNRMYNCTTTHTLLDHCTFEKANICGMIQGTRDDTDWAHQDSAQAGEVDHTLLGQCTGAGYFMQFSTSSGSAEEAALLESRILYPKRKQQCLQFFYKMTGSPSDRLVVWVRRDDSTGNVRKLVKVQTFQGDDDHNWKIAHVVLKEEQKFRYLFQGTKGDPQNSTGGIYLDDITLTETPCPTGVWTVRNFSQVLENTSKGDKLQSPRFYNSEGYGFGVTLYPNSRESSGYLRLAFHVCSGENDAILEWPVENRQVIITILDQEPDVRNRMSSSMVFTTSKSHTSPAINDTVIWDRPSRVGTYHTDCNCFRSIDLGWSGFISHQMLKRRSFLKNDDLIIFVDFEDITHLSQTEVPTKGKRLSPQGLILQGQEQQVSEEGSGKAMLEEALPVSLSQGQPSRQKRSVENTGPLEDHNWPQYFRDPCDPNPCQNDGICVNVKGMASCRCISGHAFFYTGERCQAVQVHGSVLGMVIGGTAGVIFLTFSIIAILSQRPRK
The experiment in a line: biochemical. In kind it is biochemical. The following applies: 30° C., 40 mM HEPES pH 7.4; for IC50: average IC50, 10 μM substrate, read-out: Meprin Alpha IC50; for Ki: average Ki, 4 substrate concentrations (5-40 μM), read-out: Meprin Alpha Ki.

What is called IC50 is the concentration that inhibits the measured activity by half. A word on the Ki: it is the dissociation constant of the complex between target and ligand, obtained from inhibition or displacement. As for `CCOC(=O)c1cccc(CN(CC(=O)NO)Cc2cccc(C(=O)O)c2)c1` [Example 59, 3-[[(3-ethoxycarbonylphenyl)methyl-[2-(hydroxyamino)-2-oxo-ethyl]amino]methyl]benzoic acid], the IC50 was 0.839 µM at hMeprin β and 4.13 µM on hMeprin α. In addition, the values for the Ki at hMeprin β and on hMeprin α were 0.271 µM and 1.47 µM, respectively.

Consider `O=C(CN(Cc1ccc(Cl)cc1F)Cc1ccc(Cl)cc1F)NO` [Example 60, 2-[bis[(4-chloro-2-fluoro-phenyl)methyl]-amino]ethanehydroxamic acid], for which the IC50 worked out at 138 µM at hMeprin β and 3.06 µM at hMeprin α. In addition, the Ki on hMeprin α is 0.838 µM.

On to `COc1cc(CN(CC(=O)NO)Cc2cc(OC)c(OC)c(OC)c2)cc(OC)c1OC` [Example 61, 2-[bis[(3,4,5-trimethoxyphenyl)methyl]-amino]-ethanehydroxamic acid], for which the IC50 came out at 20.1 µM against hMeprin β and 5.32 µM at hMeprin α. Further, the Ki on hMeprin α was found to be 1.18 µM.

Regarding `O=C(CN(Cc1ccc2c(c1)OCCO2)Cc1ccc2c(c1)OCCO2)NO` [Example 63, 2-[bis(2,3-dihydro-1,4-benzodioxin-6-yl-methyl)amino]ethanehydroxamic acid], the IC50 on hMeprin β amounted to 30.6 µM. Also, on hMeprin α, the IC50 was found to be 1.52 µM and the Ki amounted to 0.297 µM.

On hMeprin β, `COc1c(F)ccc(CN(CCC(=O)NO)Cc2ccc(F)c(OC)c2F)c1F` [Example 64, 3-[bis[(2,4-difluoro-3-methoxy-phenyl)methyl]-amino]propanehydroxamic acid] registered an IC50 of 18.7 µM. Also, at hMeprin α, the half-maximal inhibitory concentration (IC50) is 0.881 µM and the Ki turned out to be 0.332 µM.

In the case of `COc1cc(CN(CCC(=O)NO)Cc2cc(OC)c(OC)c(OC)c2)cc(OC)c1OC` [Example 66, 3-[bis[(3,4,5-trimethoxyphenyl)methyl]amino]-propanehydroxamic acid], the IC50 worked out at 90 µM on hMeprin β and 19.8 µM at hMeprin α.

For the compound `COc1cc(CN(CC(=O)NO)Cc2cc(OC)c3c(c2)OCO3)cc2c1OCO2` [Example 68, 2-[bis[(7-methoxy-1,3-benzodioxol-5-yl)methyl]amino]ethanehydroxamic acid], on hMeprin β, it took 4.57 µM to reach half-maximal inhibition (IC50) and the Ki was 1.82 µM. For the same compound, on hMeprin α, the IC50 worked out at 0.554 µM and the inhibition constant Ki turned out to be 0.164 µM.

At hMeprin β, `O=C(CCN(Cc1ccc2c(c1)OCCO2)Cc1ccc2c(c1)OCCO2)NO` [Example 69, 3-[bis(2,3-dihydro-1,4-benzodioxin-6-ylmethyl)amino]propanehydroxamic acid] registered an IC50 of 7.59 µM and a Ki of 3.74 µM. In addition, on hMeprin α, the IC50 amounted to 0.4 µM and the Ki is 0.117 µM.

Compound `N#Cc1cccc(CN(CCC(=O)NO)Cc2cccc(C#N)c2)c1` [Example 70, 3-[bis[(3-cyanophenyl)methyl]amino]-propanehydroxamic acid] yielded an IC50 against hMeprin β of 33.1 µM. Besides, on hMeprin α, the IC50 turned out to be 2.34 µM and the Ki worked out at 0.696 µM.

Consider `O=C(CCN(Cc1ccccc1)Cc1ccccc1)NO` [Example 71, 3-(dibenzylamino) propanehydroxamic acid], for which the IC50 against hMeprin β came to 75.5 µM; at hMeprin α it was 1.68 µM. Besides, the Ki at hMeprin α was 0.612 µM.

In the case of `O=C(CN(Cc1cccc(OC(F)F)c1)Cc1cccc(OC(F)F)c1)NO` [Example 72], the concentration for half-maximal inhibition (IC50) on hMeprin β (average IC50, 10 μM substrate, 30° C., 40 mM Tris pH 8.0, read-out: Meprin Beta IC50) worked out at 57 µM. For the same compound, on hMeprin α, the IC50 is 5.68 µM and the Ki was found to be 2.15 µM.

At hMeprin β, `O=C(CN(Cc1cccnc1)Cc1cccnc1)NO` [Example 73, 2-[bis(3-pyridylmethyl)amino]ethanehydroxamic acid] returned a concentration for half-maximal inhibition (IC50) of 21.7 µM. In addition, at hMeprin α, the IC50 was 1.96 µM and the Ki turned out to be 0.637 µM.

The compound `O=C(CCN(Cc1ccc2c(c1)OCO2)Cc1ccc2c(c1)OCO2)NO` [Example 74, 3-[bis(1,3-benzodioxol-5-ylmethyl)amino]-propanehydroxamic acid] returned a Ki on hMeprin β of 1.15 µM. For the same compound, on hMeprin α, the IC50 amounted to 0.15 µM and the Ki is 0.052 µM.
